Experimental data as given in the NIST ThermoML archive (doi:10.1016/j.jct.2017.10.002).
Values joined by “and” are separate entries in the source; they are usually repeats but may differ in a detail not shown here. Equal values may be shown once.

Test: molar heat capacity at constant pressure
Conditions: 101.33 kPa, relaxation calorimetry

CCc1ncc[n-]1.CCc1ncc[n-]1.[Zn+2] [zinc(II) 2-ethylimidazolide]
molar heat capacity at constant pressure
Conditions	Crystal	Glass
1 K	–	0.01063 J/K/mol
1.832 K	0.0493 J/K/mol	–
1.836 K	0.01638 J/K/mol	–
1.837 K	0.04503 J/K/mol	–
1.839 K	–	0.03581 J/K/mol
1.88 K	0.05213 J/K/mol	–
1.914 K	0.04977 J/K/mol	–
1.915 K	–	0.04142 J/K/mol
1.916 K	0.0188 J/K/mol	–
1.932 K	0.05559 J/K/mol	–
1.989 K	0.0603 J/K/mol	–
2 K	0.0589 J/K/mol [middle of 4 runs]	0.04827 J/K/mol
2.001 K	–	0.04687 J/K/mol
2.005 K	0.02171 J/K/mol	–
2.051 K	0.06589 J/K/mol	–
2.09 K	0.06722 J/K/mol	–
2.091 K	–	0.05348 J/K/mol
2.099 K	0.02469 J/K/mol	–
2.118 K	0.07352 J/K/mol	–
2.183 K	0.07697 J/K/mol	–
2.184 K	–	0.06212 J/K/mol
2.19 K	0.08177 J/K/mol	–
2.197 K	0.02817 J/K/mol	–
2.265 K	0.0916 J/K/mol	–
2.283 K	0.08765 J/K/mol	–
2.285 K	–	0.07138 J/K/mol
2.301 K	0.03272 J/K/mol	–
2.346 K	0.1035 J/K/mol	–
2.41 K	0.03888 J/K/mol	–
2.411 K	0.1031 J/K/mol	–
2.417 K	–	0.08449 J/K/mol
2.488 K	0.1258 J/K/mol	–
2.509 K	–	0.09566 J/K/mol
2.512 K	0.1183 J/K/mol	–
2.516 K	0.04352 J/K/mol	–
2.61 K	0.1475 J/K/mol	–
2.615 K	0.135 J/K/mol	–
2.639 K	0.0517 J/K/mol	–
2.646 K	–	0.1124 J/K/mol
2.733 K	0.1558 J/K/mol	–
2.738 K	–	0.1254 J/K/mol
2.739 K	0.1709 J/K/mol	–
2.744 K	0.0566 J/K/mol	–
2.854 K	0.06599 J/K/mol	–
2.858 K	0.194 J/K/mol	–
2.86 K	0.1727 J/K/mol	–
2.868 K	–	0.1481 J/K/mol
2.979 K	0.1934 J/K/mol	–
2.986 K	0.2216 J/K/mol	0.1712 J/K/mol
2.992 K	0.07481 J/K/mol	–
3 K	0.2257 J/K/mol and 0.076 J/K/mol and 0.2038 J/K/mol	0.168 J/K/mol
3.106 K	0.08446 J/K/mol	–
3.109 K	0.2254 J/K/mol	–
3.118 K	0.2529 J/K/mol	–
3.122 K	–	0.1906 J/K/mol
3.246 K	0.09833 J/K/mol	–
3.248 K	0.2525 J/K/mol	–
3.259 K	0.2898 J/K/mol	–
3.264 K	–	0.2232 J/K/mol
3.388 K	0.2988 J/K/mol	–
3.395 K	0.1127 J/K/mol	–
3.397 K	–	0.2534 J/K/mol
3.407 K	0.3327 J/K/mol	–
3.536 K	0.3331 J/K/mol	–
3.537 K	0.1275 J/K/mol	–
3.551 K	–	0.2838 J/K/mol
3.562 K	0.381 J/K/mol	–
3.691 K	0.3887 J/K/mol	–
3.692 K	0.1432 J/K/mol	–
3.699 K	–	0.3307 J/K/mol
3.737 K	0.4416 J/K/mol	–
3.853 K	0.4343 J/K/mol and 0.1693 J/K/mol	–
3.861 K	–	0.3658 J/K/mol
3.916 K	0.5079 J/K/mol	–
4 K	0.5386 J/K/mol and 0.1872 J/K/mol and 0.4762 J/K/mol	0.4158 J/K/mol
4.023 K	0.1911 J/K/mol	–
4.024 K	0.4906 J/K/mol	–
4.033 K	–	0.4343 J/K/mol
4.093 K	0.5776 J/K/mol	–
4.203 K	0.2234 J/K/mol	–
4.204 K	0.5288 J/K/mol	–
4.213 K	–	0.4859 J/K/mol
4.288 K	0.6588 J/K/mol	–
4.385 K	0.6193 J/K/mol	–
4.39 K	0.2481 J/K/mol	–
4.397 K	–	0.5485 J/K/mol
4.475 K	0.7416 J/K/mol	–
4.577 K	0.2815 J/K/mol	–
4.58 K	0.6992 J/K/mol	–
4.588 K	–	0.6228 J/K/mol
4.673 K	0.833 J/K/mol	–
4.782 K	0.3148 J/K/mol	–
4.784 K	0.7873 J/K/mol	–
4.797 K	–	0.7076 J/K/mol
4.885 K	0.9362 J/K/mol	–
4.995 K	0.8682 J/K/mol and 0.3599 J/K/mol	–
5 K	0.9962 J/K/mol and 0.3674 J/K/mol and 0.8773 J/K/mol	0.8029 J/K/mol
5.008 K	–	0.8138 J/K/mol
5.104 K	1.051 J/K/mol	–
5.217 K	0.968 J/K/mol and 0.4058 J/K/mol	–
5.228 K	–	0.8928 J/K/mol
5.341 K	1.18 J/K/mol	–
5.447 K	1.121 J/K/mol	–
5.449 K	0.4865 J/K/mol	–
5.457 K	–	1.022 J/K/mol
5.583 K	1.326 J/K/mol	–
5.686 K	0.5523 J/K/mol	–
5.687 K	1.228 J/K/mol	–
5.699 K	–	1.17 J/K/mol
5.837 K	1.479 J/K/mol	–
5.933 K	1.341 J/K/mol	–
5.936 K	0.614 J/K/mol	–
5.952 K	–	1.278 J/K/mol
6 K	1.585 J/K/mol and 0.6261 J/K/mol and 1.401 J/K/mol	1.321 J/K/mol
6.1 K	1.651 J/K/mol	–
6.189 K	1.538 J/K/mol	–
6.195 K	0.6531 J/K/mol	–
6.204 K	–	1.457 J/K/mol
6.407 K	1.86 J/K/mol	–
6.464 K	0.7855 J/K/mol	–
6.465 K	1.656 J/K/mol	–
6.479 K	–	1.613 J/K/mol
6.685 K	2.057 J/K/mol	–
6.752 K	1.863 J/K/mol and 0.8975 J/K/mol	–
6.765 K	–	1.809 J/K/mol
6.98 K	2.277 J/K/mol	–
7 K	2.294 J/K/mol and 0.9817 J/K/mol and 2.037 J/K/mol	1.956 J/K/mol
7.049 K	2.08 J/K/mol and 1.007 J/K/mol	–
7.062 K	–	1.981 J/K/mol
7.296 K	2.524 J/K/mol	–
7.357 K	2.322 J/K/mol and 1.115 J/K/mol	–
7.372 K	–	2.248 J/K/mol
7.627 K	2.797 J/K/mol	–
7.681 K	1.273 J/K/mol	–
7.686 K	2.488 J/K/mol	–
7.698 K	–	2.428 J/K/mol
7.976 K	3.092 J/K/mol	–
8 K	3.113 J/K/mol and 1.446 J/K/mol and 2.772 J/K/mol	2.689 J/K/mol
8.016 K	1.458 J/K/mol	–
8.018 K	2.783 J/K/mol	–
8.034 K	–	2.703 J/K/mol
8.339 K	3.414 J/K/mol	–
8.366 K	1.661 J/K/mol	–
8.367 K	3.093 J/K/mol	–
8.389 K	–	3.029 J/K/mol
8.718 K	3.76 J/K/mol	–
8.733 K	3.359 J/K/mol	–
8.737 K	1.859 J/K/mol	–
8.753 K	–	3.269 J/K/mol
9 K	4.029 J/K/mol and 2.004 J/K/mol and 3.588 J/K/mol	3.511 J/K/mol
9.115 K	4.141 J/K/mol	–
9.117 K	2.11 J/K/mol	–
9.118 K	3.738 J/K/mol	–
9.136 K	–	3.605 J/K/mol
9.514 K	3.952 J/K/mol	–
9.518 K	2.336 J/K/mol	–
9.529 K	4.549 J/K/mol	–
9.536 K	–	4.033 J/K/mol
9.931 K	4.428 J/K/mol	–
9.935 K	2.594 J/K/mol	–
9.953 K	–	4.356 J/K/mol
10 K	5.029 J/K/mol and 2.651 J/K/mol and 4.482 J/K/mol	4.413 J/K/mol
10.12 K	5.166 J/K/mol	–
10.35 K	4.823 J/K/mol and 2.874 J/K/mol	4.741 J/K/mol
10.59 K	5.656 J/K/mol	–
10.77 K	5.231 J/K/mol and 3.187 J/K/mol	–
10.78 K	–	5.172 J/K/mol
11.06 K	6.17 J/K/mol	–
11.24 K	5.701 J/K/mol and 3.55 J/K/mol	–
11.25 K	–	5.657 J/K/mol
11.54 K	6.677 J/K/mol	–
11.74 K	6.214 J/K/mol and 3.967 J/K/mol	–
11.75 K	–	6.171 J/K/mol
12.06 K	7.299 J/K/mol	–
12.26 K	6.744 J/K/mol and 4.399 J/K/mol	–
12.27 K	–	6.731 J/K/mol
12.59 K	7.93 J/K/mol	–
12.81 K	7.34 J/K/mol and 4.896 J/K/mol	7.322 J/K/mol
13.15 K	8.616 J/K/mol	–
13.37 K	7.965 J/K/mol and 5.426 J/K/mol	–
13.38 K	–	7.966 J/K/mol
13.74 K	9.343 J/K/mol	–
13.96 K	8.65 J/K/mol and 6.006 J/K/mol	–
13.97 K	–	8.66 J/K/mol
14.35 K	10.14 J/K/mol	–
14.57 K	9.355 J/K/mol and 6.627 J/K/mol	–
14.59 K	–	9.395 J/K/mol
14.99 K	10.97 J/K/mol	–
15 K	10.96 J/K/mol and 7.064 J/K/mol and 9.871 J/K/mol	9.887 J/K/mol
15.22 K	10.14 J/K/mol and 7.319 J/K/mol	–
15.23 K	–	10.18 J/K/mol
15.49 K	11.63 J/K/mol	–
15.72 K	7.865 J/K/mol	–
15.73 K	10.74 J/K/mol	–
15.74 K	–	10.79 J/K/mol
16.94 K	13.59 J/K/mol	–
17.17 K	12.58 J/K/mol	–
17.18 K	9.551 J/K/mol	12.66 J/K/mol
18.52 K	15.74 J/K/mol	–
18.77 K	11.5 J/K/mol	–
18.78 K	14.67 J/K/mol	–
18.79 K	–	14.78 J/K/mol
20 K	17.74 J/K/mol and 13.06 J/K/mol and 16.28 J/K/mol	16.43 J/K/mol
